{"source": "patent US20230227511A1", "about": "“THERAPEUTIC OR […] FOR INFECTIOUS DISEASE” (NIPPON MEDICAL SCHOOL FOUNDATION, priority 2020, published 2023)", "key": {"sepsis mouse models": {"tested_on": "sepsis mouse models", "assay": "Administration of the 50-amino acid peptide (PTX3N50) to sepsis mouse models", "assay_type": "in vivo", "details": "peptide not fused to Fc"}, "[1]": {"tested_on": "vascular endothelial cells", "details": "Patent Document 1; cited from earlier work"}}, "data": [{"substance": "PTX3N50: 50-amino acid peptide on the N-terminal side of PTX3, not fused to Fc (ENSDDYDLMYVNLDNEIDNGLHPTEDPTPCACGQEHSEWDKLFIMLENSQ; UniProt P26022 18-67, looked up, fragment)", "values": [{"measurement": "survival percentage of the sepsis mouse models", "setting": "sepsis mouse models", "result": "could not improve the survival percentage"}, {"measurement": "action to suppress histone cytotoxicity against vascular endothelial cells", "setting": "[1]", "result": "has an action to suppress histone cytotoxicity"}]}]}
